Where two headings read alike, the source gives them in different places.
Columns and labels:
[1] = system: Patient-Derived Micro-Organospheres (tumor biopsy); assay: drug effect screen on Patient-Derived Micro-Organospheres from a patient tumor biopsy; assay type: cell-based, human; details: for percent survival of the Micro-Organospheres in the presence of the drug: Example 3, FIGS. 23B-23C, predicts drug resistance
Description: The Patient-Derived Micro-Organospheres described herein may be used in a variety of different assays, and in particular may be used to determine drug formulation effects, including toxicity, on normal and/or abnormal (e.g., cancerous) tissue. For example, drug screening may include applying Micro-Organospheres into all or some wells of multi-well (e.g., a 96-well) plate. Alternatively custom plates may be used (e.g., a 10,000 micro-well array may be formed of a 100×100 wells). The Micro-Organospheres (e.g., gel droplets) may be applied into, or in some variations onto the multiple microwell arrays and incubated with culture medium. The Micro-Organospheres may be cultured over the course of 3-5 days. In some variations, on day 5, the wells (e.g., micro-reactors) may then be dosed with drug compounds, e.g., based on a set of FDA-approved anticancer drugs, to examine the effects of the drug panel. For example, the drugs texted may be based on the National Cancer Institute (Division of Cancer Treatment and Diagnosis (11)) screen, consisting of 147 agents intended to enable cancer research, drug discovery and combination drug studies. On Day 7, the Micro-Organospheres may be imaged via standard fluorescent microscopy and ranked based on drug response.
In this example, the screening assay may be automated. This may enable repeatable and automated workflow, which may increase the number of drugs screened from a few to hundreds. FIGS. 17A-17E illustrate one example of this workflow. In FIG. 17A, a tumor biopsy is taken and a plurality (e.g., >10,000) Micro-Organospheres are formed as described above (in FIG. 17A the junction region forming the Micro-Organospheres is illustrated).
In a similar set of experiments, Micro-Organospheres were generated from biopsy material (FIG. 23A), and a drug effect screen was performed using the resulting Micro-Organospheres. […] Thus, the Micro-Organospheres correlated strongly with patient response to the standard of care drugs. […]

patient tumor = assay: actual response of the patient's tumor to drug treatment; assay type: in vivo, human; details: for patient response to treatment: Example 3, treated with both Oxaliplatin and Irinotecan, after 6 months of treatment
[2] = system: PDX19187 cells (colorectal cancer); assay type: cell-based, human; details: cell viabilities after 3 days of treatment
Experimental: (§1) Organoids were formed from Patient Derived Xenograft cells (including the PDX240 cells described above and a second PDX cell line, PDX19187) and were compared with Micro-Organospheres formed using the same cells. The organoids were formed using conventional techniques in which a large mass of […] in a well or dish was seeded with cells and cultured until growth was confirmed. Micro-Organospheres were generated from the traditional organoids.
(§2) Both traditional (“bulk”) organoids and the Micro-Organospheres were then treated with the same drugs (e.g., Oxaliplatin or SN38) and cell viabilities were measured after 3 days of treatment.

traditional cell line = assay: traditional (2D) tumor cell line drug assay; assay type: cell-based; details: FIG. 22A; all dose ranges examined; predicts drug resistance
Description: As mentioned above, the Patient-Derived Micro-Organospheres and methods of using them to screen for drug compositions may be used to accurately predict the response of a patient tumor to one or more drug therapies. […] For example, in FIG. 22A-22D, the Micro-Organospheres, but not a cell line, was able to correlate with patient response.

[3] = system: PDX240 cells (colorectal cancer patient derived xenograft); assay: drug response curves, traditional (bulk) organoids versus Micro-Organospheres, PDX240; assay type: cell-based, human; details: cell viabilities after 3 days of treatment
Description: In some variations, the Micro-Organospheres may be formed from cell lines grown as part of a Patient Derived Xenograft (PDX). For example, FIGS. 28A-28D illustrate Micro-Organospheres formed from cultured PDX240 cells. PDX240 cells are a Patient Derived Xenograft (PDX) tumor cell line (numbered 240 based on patient source) that were human tumors grown in immunodeficient mice (PDX) to form in vivo tumors. The xenograft tissue was extracted dissociated, and used to form Micro-Organospheres as described above. In this example a single cell was included in each Micro-Organospheres as it was formed. […] With progressive time in culture, at least some of the Micro-Organospheres show the cells dividing and forming structures.
as §1, §2

Structure (SMILES) | percent survival of the Micro-Organospheres in the presence of the drug [1] | patient response to treatment (patient tumor) | drug response curve (cell viability), bulk organoids compared with Micro-Organospheres [3] | also measured
CCc1c2c(nc3ccc(OC(=O)N4CCC(N5CCCCC5)CC4)cc13)-c1cc3c(c(=O)n1C2)COC(=O)[C@]3(O)CC [Irinotecan] | lack of effect | no response | – | –
O=C1[O][Pt]2([NH][C@@H]3CCCC[C@H]3[NH]2)[O]C1=O [Oxaliplatin] | no change in the percent survival | no response | – | cell survival of tumor Micro-Organospheres ([1]; Example 2, FIG. 22B, predicts drug sensitivity): significant decreases in cell survival; drug response curve (cell viability), bulk organoids compared with Micro-Organospheres ([2]; listed as Oxalipalatin): comparable response; drug effect on traditional cell line (traditional cell line): no effect; tumor response of the patient to treatment (patient tumor; Example 2, FIGS. 22C (before) and 22D (post treatment)): responded to treatment
O=c1[nH]cc(F)c(=O)[nH]1 [5-FU, Fluorouracil] | – | – | comparable responses | –
CCc1c2c(nc3ccc(O)cc13)-c1cc3c(c(=O)n1C2)COC(=O)[C@]3(O)CC [SN38, 7-Ethyl-10-hydroxy-camptothecin] | – | – | comparable responses | drug response curve (cell viability), bulk organoids compared with Micro-Organospheres [2]: comparable responses

From patent publication US20230003716A1, “METHODS AND APPARATUSES FOR PATIENT-DERIVED MICROORGANOSPHERES” (Xilis, Inc., priority 2020, published 2023)
